SMILES strings stand for the structures. pIC50: −log10 of the molar value. Bounds are passed on as bounds.

The values that follow come from ChEMBL document CHEMBL4028852, “Design of a Chemical Probe for the Bromodomain and Plant Homeodomain Finger-Containing (BRPF) Family of Proteins” (J Med Chem, 2017).

Data set [1] concerns the target T1, Transcription intermediary factor 1-alpha (Homo sapiens, UniProt O15164).
T1 sequence (O15164 whole entry): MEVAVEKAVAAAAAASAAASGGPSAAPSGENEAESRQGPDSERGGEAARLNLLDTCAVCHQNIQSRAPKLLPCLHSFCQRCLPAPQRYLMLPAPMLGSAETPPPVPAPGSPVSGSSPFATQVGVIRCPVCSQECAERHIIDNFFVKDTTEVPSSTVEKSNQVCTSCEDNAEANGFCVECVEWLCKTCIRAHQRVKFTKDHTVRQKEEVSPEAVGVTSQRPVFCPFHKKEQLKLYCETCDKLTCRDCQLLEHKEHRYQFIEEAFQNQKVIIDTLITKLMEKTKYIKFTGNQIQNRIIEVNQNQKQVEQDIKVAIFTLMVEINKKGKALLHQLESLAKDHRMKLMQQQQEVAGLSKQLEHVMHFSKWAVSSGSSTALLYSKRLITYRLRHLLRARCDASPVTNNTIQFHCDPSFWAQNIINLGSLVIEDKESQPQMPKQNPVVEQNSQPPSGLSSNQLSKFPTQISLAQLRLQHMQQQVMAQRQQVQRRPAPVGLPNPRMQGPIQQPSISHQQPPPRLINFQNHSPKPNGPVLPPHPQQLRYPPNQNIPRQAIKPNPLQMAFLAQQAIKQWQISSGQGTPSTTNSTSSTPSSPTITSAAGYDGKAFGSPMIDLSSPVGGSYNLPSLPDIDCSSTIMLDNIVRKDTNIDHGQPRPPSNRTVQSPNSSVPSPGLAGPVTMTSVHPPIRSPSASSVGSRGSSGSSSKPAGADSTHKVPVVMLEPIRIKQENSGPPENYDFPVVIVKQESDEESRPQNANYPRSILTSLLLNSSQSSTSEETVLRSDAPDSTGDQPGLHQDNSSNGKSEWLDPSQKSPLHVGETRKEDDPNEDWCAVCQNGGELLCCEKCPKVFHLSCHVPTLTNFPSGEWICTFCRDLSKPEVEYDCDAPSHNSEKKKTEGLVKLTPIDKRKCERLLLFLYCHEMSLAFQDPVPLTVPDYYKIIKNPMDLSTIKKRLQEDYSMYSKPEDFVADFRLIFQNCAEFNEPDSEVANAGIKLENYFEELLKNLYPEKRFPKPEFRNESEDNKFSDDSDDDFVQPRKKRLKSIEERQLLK
As to the kind of experiment: Inhibition of TRIM24 (unknown origin) using tetra-acetylated histone 4/ mono-acetylated K14 histone 3 as substrate after 30 mins by alphascreen assay.

Data set [2] in a line: Inhibition of cell proliferation of human NCI60 cells at 10 uM after 48 hrs by SRB assay. The class given is functional. As to conditions: NCI60, 48 h.
The target in data set [3] is T2, Kv4.3/KChIP2 (Homo sapiens, UniProt Q9NS61+Q9UK17).
T2 sequence (Q9UK17 whole entry): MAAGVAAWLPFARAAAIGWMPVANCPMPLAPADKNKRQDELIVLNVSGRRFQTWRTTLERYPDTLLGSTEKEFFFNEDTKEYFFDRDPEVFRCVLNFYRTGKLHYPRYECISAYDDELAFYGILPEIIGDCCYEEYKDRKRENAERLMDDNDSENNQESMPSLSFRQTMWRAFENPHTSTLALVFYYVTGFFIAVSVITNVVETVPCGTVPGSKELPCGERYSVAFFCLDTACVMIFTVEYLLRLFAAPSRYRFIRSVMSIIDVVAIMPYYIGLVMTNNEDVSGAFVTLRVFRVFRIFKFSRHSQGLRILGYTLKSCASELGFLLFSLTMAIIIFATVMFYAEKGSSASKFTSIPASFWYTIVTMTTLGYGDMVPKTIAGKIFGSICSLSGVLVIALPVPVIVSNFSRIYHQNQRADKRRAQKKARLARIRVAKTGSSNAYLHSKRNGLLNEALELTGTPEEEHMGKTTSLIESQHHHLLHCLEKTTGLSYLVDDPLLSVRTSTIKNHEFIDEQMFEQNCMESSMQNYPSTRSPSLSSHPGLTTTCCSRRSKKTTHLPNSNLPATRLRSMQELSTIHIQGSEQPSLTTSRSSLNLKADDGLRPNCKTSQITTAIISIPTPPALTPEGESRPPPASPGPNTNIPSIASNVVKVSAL
T2 sequence (Q9NS61 whole entry): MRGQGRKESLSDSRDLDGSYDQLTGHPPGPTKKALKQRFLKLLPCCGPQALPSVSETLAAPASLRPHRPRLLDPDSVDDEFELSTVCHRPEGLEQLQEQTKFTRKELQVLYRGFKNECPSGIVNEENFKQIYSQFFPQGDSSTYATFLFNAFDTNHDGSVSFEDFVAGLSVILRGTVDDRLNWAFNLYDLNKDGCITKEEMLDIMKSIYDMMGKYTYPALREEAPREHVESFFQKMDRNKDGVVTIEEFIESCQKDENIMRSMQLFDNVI
The experiment in a line: Inhibition of Kv4.3/KChIP2 (unknown origin) at 30 uM. The class given is protein-complex assay.

Data set [4] deals with KCNQ1/minK (Homo sapiens, UniProt P51787+Q8N4C8). As to the kind of experiment: Inhibition of KCNQ1/minK (unknown origin) at 30 uM. The class given is protein-complex assay.
Sequence of KCNQ1/minK (P51787 whole entry): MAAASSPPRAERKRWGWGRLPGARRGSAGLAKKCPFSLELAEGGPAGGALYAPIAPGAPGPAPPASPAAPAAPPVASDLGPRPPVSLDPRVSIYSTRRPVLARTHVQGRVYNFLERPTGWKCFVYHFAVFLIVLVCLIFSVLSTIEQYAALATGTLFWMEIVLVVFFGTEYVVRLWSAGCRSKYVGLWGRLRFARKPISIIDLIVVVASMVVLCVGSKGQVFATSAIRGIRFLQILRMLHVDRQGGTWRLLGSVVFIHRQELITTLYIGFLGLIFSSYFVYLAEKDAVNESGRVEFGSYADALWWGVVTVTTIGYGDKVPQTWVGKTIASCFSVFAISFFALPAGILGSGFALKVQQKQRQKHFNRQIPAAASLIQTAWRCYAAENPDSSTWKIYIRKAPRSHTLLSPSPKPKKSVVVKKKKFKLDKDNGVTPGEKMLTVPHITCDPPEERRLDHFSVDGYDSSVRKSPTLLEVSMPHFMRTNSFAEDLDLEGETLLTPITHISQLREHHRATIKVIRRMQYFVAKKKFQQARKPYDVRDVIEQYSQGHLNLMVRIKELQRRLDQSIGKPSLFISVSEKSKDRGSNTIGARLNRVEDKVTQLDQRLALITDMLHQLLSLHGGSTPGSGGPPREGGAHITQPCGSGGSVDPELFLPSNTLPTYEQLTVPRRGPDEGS
Sequence of KCNQ1/minK (Q8N4C8 whole entry): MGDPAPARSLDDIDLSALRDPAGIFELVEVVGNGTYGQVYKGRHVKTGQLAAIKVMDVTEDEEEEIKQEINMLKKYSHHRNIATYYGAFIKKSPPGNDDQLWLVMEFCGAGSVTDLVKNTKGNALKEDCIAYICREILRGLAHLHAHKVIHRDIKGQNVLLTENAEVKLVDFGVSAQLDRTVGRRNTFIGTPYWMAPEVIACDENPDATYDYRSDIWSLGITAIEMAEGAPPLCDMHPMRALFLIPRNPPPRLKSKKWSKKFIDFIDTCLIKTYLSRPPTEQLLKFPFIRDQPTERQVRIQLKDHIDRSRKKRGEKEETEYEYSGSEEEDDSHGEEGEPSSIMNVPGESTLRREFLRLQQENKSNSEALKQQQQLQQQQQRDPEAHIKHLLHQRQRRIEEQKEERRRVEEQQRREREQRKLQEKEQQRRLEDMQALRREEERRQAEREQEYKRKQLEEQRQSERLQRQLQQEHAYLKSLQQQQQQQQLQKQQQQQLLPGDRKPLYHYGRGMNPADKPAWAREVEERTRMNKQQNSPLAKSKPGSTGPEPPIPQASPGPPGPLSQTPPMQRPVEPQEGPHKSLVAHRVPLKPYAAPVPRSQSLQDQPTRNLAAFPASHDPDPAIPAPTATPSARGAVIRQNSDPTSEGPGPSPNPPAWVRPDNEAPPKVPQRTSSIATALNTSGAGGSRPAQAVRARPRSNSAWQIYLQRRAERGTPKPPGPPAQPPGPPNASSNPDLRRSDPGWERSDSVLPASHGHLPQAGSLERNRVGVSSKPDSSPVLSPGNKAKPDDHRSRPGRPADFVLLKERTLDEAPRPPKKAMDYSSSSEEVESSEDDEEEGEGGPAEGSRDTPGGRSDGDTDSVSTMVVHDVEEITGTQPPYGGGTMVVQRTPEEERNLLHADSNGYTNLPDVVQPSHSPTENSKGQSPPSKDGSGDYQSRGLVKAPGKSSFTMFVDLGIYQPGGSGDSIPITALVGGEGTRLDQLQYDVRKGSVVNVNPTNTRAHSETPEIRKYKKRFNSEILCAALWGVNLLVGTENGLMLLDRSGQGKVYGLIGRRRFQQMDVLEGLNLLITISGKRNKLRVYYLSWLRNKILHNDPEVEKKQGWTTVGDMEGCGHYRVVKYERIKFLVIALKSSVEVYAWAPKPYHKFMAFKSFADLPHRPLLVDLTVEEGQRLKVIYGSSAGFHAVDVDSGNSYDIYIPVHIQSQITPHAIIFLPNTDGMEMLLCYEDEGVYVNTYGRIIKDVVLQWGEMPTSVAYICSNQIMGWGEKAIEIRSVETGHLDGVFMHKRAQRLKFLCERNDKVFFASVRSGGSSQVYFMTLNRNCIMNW

Compound `COc1cc(C#N)ccc1S(=O)(=O)Nc1ccc2c(c1)cc(C)c(=O)n2C` gave a pIC50 in data set [1] below 5.00. In addition, the inhibition at 10 µM in data set [2] was below 25%. Moreover, the inhibition at 30 µM in data set [3] and in data set [4] was below 40% each time.
